{"source": "patent US10206867B2", "about": "“Alcoholic extract of aerial parts of Solidago virgaurea subsp. alpestris, method of production thereof, and cosmetic or dermatological composition containing it” (CHANEL PARFUMS BEAUTE, priority 2015, dated 2019)", "key": {"[1]": {"assay": "Antioxidant activity, pholasin ABEL chemiluminescence test, hydroxyl radicals", "assay_type": "biochemical", "experimental": "(§1) To determine the capacity of Goldenrod for trapping free radicals (hydroxyls, halogenated derivatives, peroxynitrites and superoxide radicals), i.e. its antioxidant capacity, chemiluminescence tests dependent on pholasin ABEL®1 were used (Knight Scientific Limited) according to the manufacturer's instructions. Briefly, various concentrations of ingredients were incubated with pholasin, a well known photoprotein that emits light when it binds to free radicals. D-Mannitol, albumin, vitamin E and L-ascorbic acid were used as positive controls for determining the capacity of the extract for trapping hydroxyl radicals, halogenated derivatives, peroxynitrites and superoxides, respectively.\nAll the determinations were repeated 5 times and the mean values were determined. The antioxidant capacity of the ingredient is expressed as the percentage reduction of the luminescence peak of Pholasin observed during the assay in the presence and in the absence of the active ingredient ±SD, with the untreated control represented at 0%."}, "MMP3": {"biological_target": "T1, MMP3 (Homo sapiens, UniProt P08254)", "T1 construct": "purchased Biomol SE-109", "T1 sequence (P08254 100-272 limits assumed)": "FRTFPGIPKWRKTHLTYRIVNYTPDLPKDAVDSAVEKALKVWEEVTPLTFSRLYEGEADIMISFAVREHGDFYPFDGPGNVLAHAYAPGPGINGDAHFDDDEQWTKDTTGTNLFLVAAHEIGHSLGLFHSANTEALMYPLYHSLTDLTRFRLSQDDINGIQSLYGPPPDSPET", "assay": "MMP3 activity by fluorometric assay", "assay_type": "biochemical", "settings": "5 mM; percentage activity relative to untreated control (100%)", "experimental": "(§2) To evaluate the effect of Goldenrod on the activity of MMP3 and MMP9, the enzymes (Biomol SE-109 and SE-244, respectively) were incubated with different concentrations of Goldenrod, each concentration in quintuplicate. The enzymatic reaction was induced by adding the fluorescent substrate specific to each MMP enzyme, dissolved in DMSO (Bachem H-2300, M-2055). The enzymatic reaction was monitored by spectrophotometry for one hour and the fluorescence was measured after excitation/emission at wavelengths of 360/460 nm for MMP3, or 320/405 nm for MMP9. The results are expressed as the mean of the replicates ±SD and are shown in […] activity of the MMPs relative to the untreated control, which represents 100%. As control, EDTA was used for inhibiting the activity of the MMPs."}, "MMP9": {"biological_target": "T2, MMP9 (Homo sapiens, UniProt P14780)", "T2 construct": "purchased Biomol SE-244", "T2 sequence (P14780 107-444 limits assumed)": "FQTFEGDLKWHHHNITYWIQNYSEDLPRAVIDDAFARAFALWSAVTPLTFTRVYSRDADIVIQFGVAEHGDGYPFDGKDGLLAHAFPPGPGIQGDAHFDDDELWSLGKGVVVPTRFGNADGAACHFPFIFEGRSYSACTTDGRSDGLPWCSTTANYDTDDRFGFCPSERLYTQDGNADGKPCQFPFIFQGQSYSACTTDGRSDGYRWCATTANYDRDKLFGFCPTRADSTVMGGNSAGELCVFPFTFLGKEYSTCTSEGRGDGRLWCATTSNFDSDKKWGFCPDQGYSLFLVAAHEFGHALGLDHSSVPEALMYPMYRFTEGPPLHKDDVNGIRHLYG", "assay": "MMP9 activity by fluorometric assay", "assay_type": "biochemical", "settings": "5 mM; percentage activity relative to untreated control (100%)", "experimental": "as §2"}, "[2]": {"assay": "Antioxidant activity, pholasin ABEL chemiluminescence test, superoxides", "assay_type": "biochemical", "experimental": "as §1, with “respectively. […] The antioxidant capacity of the ingredient is expressed as the percentage reduction of the luminescence peak of Pholasin observed during the assay in the presence and in the absence of the active ingredient ±SD, with the untreated control represented at 0%.” for “respectively.”"}, "[3]": {"system": "Primary human keratinocytes (KC)", "assay": "Primary human keratinocytes (KC) under Paraquat stress: cell counts and qPCR of MMP1, p16INK4a", "assay_type": "cell-based", "settings": "for Mean number of cells counted, corrected for the cell division factor: 37500 cells seeded on day 0", "experimental": "Primary human keratinocytes derived from neonatal foreskin of individual donors (KC) were purchased from CellSystems (Troisdorf, Germany) and cultured in a KC growth medium (KGM, Clonetics, Gaithersburg, USA) supplemented with 0.1 ng/ml of recombinant human EGF, 5 μg/ml insulin, 0.5 μg/ml of hydrocortisone, 0.4% of bovine pituitary extract, 50 μg/ml of gentamicin and 50 ng/ml of amphotericin B. The RNA was isolated using the RNeasy 96 system ([…]), and 900 ng of total RNA was reverse-transcribed with the iScript cDNA Synthesis Kit (Biorad). qPCR was performed using the LightCycler 480 and the LightCycler 480 SYBR Green I Master (Roche, Basle, Switzerland). Expression of the target genes was normalized relative to expression of β-2 microglobulin. The sequences of the primers are as follows (5′-3′): B2Mf […] (SEQ ID NO:11); B2Mr: […] (SEQ ID NO:12);\nThe cells are seeded for the stress experiments on day 0 at 1500 cells/cm^2 and treated on days 2, 5 and 6 with Paraquat (PQ) (80 μm) for 24 hours. Treatment with Goldenrod was carried out on days 1 and 4 on untreated cells or cells treated with Paraquat."}}}
{"smiles": "OC[C@@H](O)[C@@H](O)[C@H](O)[C@H](O)CO", "note": "[D-Mannitol]", "values": [{"measurement": "Mean % inhibition", "setting": "[1]; 0.8 mM", "result": "59.9 ± 3.6", "unit": "%"}, {"measurement": "Mean % inhibition", "setting": "[1]; 1 mM", "result": "76.1 ± 14", "unit": "%"}, {"measurement": "Mean % inhibition", "setting": "[1]; 2 mM", "result": "82.6 ± 14.8", "unit": "%"}, {"measurement": "Mean % inhibition", "setting": "[1]; 4 mM", "result": "92.6 ± 4.7", "unit": "%"}, {"measurement": "Mean % inhibition", "setting": "[1]; 6 mM", "result": "95.1 ± 0.3", "unit": "%"}]}
{"smiles": "O=C(O)CN(CCN(CC(=O)O)CC(=O)O)CC(=O)O", "note": "[EDTA]", "values": [{"measurement": "Enzyme activity MMP3", "setting": "MMP3", "result": "4.3 ± 5.3", "unit": "%"}, {"measurement": "Enzyme activity MMP9", "setting": "MMP9", "result": "0 ± 0.9", "unit": "%"}]}
{"smiles": "O=C1O[C@H]([C@@H](O)CO)C(O)=C1O", "note": "[L-ascorbic acid]", "values": [{"measurement": "Mean % inhibition", "setting": "[2]; 10 μmol/L", "result": "26.4 ± 3.5", "unit": "%"}, {"measurement": "Mean % inhibition", "setting": "[2]; 20 μmol/L", "result": "43.9 ± 1.4", "unit": "%"}, {"measurement": "Mean % inhibition", "setting": "[2]; 40 μmol/L", "result": "64.8 ± 0.8", "unit": "%"}, {"measurement": "Mean % inhibition", "setting": "[2]; 60 μmol/L", "result": "75.3 ± 1", "unit": "%"}, {"measurement": "Mean % inhibition", "setting": "[2]; 80 μmol/L", "result": "82.4 ± 1.8", "unit": "%"}]}
{"smiles": "C[n+]1ccc(-c2cc[n+](C)cc2)cc1", "note": "[Paraquat]", "values": [{"measurement": "Mean number of cells counted, corrected for the cell division factor", "setting": "[3]; D3, single treatment", "result": "405,000 cells"}, {"measurement": "Mean number of cells counted, corrected for the cell division factor", "setting": "[3]; D7, single treatment", "result": "546,666 cells"}, {"measurement": "Expression of MMP1", "setting": "[3]; treatment with Paraquat alone", "result": "induces"}, {"measurement": "Expression of p16INK4a", "setting": "[3]; treatment with Paraquat alone", "result": "induces"}]}
